Data: ChEMBL document CHEMBL1795278, “Synthesis and evaluation of fluorescent heterocyclic aminoadamantanes as multifunctional neuroprotective agents” (Bioorg Med Chem, 2011)

What was measured:
[1] = Antioxidant activity assessed as inhibition of ABTS free radicals at 1 mM after 30 mins by UV-visible spectrophotometer analysis relative to control; assay type: functional
[2] = Antioxidant activity assessed as inhibition of ABTS free radicals at 0.1 mM after 30 mins by UV-visible spectrophotometer analysis relative to control; assay type: functional
[3] = system: Radical scavenging activity; assay: Antioxidant activity assessed as inhibition of DPPH free radicals at 1 mM after 30 mins by UV-visible spectrophotometer analysis relative to control; assay type: functional
[4] = Antagonist activity at NMDAR in Sprague-Dawley rat brain synaptoneurosomes assessed as inhibition of NMDA/glycine-induced calcium flux at 100 uM after 5 mins using FURA-2AM by fluorescent spectrometer analysis relative to control; assay type: functional
[5] = target: Nitric oxide synthase 1 (Rattus norvegicus, UniProt P29476); assay: Inhibition of nNOS in Sprague-Dawley rat brain homogenates assessed as conversion of oxyhemoglobin to methemoglobin measured for 10 mins by UV-visible spectrophotometer analysis
Nitric oxide synthase 1, sequence (P29476 whole entry): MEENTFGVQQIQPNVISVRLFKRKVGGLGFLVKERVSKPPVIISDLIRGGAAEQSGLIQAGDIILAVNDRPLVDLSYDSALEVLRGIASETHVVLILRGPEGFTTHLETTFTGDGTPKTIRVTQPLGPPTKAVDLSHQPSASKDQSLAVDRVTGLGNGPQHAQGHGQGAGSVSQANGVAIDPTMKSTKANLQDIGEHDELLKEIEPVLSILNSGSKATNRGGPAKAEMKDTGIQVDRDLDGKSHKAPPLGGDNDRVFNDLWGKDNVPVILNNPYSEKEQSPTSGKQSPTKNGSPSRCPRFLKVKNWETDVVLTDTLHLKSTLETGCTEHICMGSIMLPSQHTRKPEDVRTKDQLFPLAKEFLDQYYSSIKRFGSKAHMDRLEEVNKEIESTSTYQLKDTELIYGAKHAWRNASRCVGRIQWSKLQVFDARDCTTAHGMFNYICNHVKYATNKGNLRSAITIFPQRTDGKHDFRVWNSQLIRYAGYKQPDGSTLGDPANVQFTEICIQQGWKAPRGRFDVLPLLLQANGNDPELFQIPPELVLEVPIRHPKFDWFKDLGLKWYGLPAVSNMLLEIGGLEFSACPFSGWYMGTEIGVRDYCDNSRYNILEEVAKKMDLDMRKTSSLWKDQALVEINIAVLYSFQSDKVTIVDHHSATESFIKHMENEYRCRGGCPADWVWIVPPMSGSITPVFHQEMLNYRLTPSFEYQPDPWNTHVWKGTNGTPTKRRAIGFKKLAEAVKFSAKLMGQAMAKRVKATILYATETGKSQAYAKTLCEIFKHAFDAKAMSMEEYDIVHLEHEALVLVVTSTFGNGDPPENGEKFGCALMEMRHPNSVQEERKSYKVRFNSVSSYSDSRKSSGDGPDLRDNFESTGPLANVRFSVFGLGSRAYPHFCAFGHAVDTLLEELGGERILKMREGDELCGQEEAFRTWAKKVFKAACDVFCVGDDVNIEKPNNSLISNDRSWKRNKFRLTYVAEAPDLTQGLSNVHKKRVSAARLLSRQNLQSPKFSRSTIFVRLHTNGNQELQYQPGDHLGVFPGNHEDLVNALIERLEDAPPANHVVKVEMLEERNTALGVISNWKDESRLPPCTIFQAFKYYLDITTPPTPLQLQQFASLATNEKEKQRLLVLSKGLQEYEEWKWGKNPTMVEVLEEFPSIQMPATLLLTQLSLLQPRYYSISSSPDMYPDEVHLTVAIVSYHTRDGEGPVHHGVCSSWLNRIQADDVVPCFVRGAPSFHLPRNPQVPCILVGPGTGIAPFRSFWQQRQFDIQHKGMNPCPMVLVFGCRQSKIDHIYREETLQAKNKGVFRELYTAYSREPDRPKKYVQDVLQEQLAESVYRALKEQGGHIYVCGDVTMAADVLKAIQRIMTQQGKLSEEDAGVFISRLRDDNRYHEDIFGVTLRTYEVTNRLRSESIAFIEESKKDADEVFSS

[6] = Antioxidant activity assessed as inhibition of ABTS free radicals at 0.01 mM after 30 mins by UV-visible spectrophotometer analysis relative to control; assay type: functional
[7] = system: Radical scavenging activity; assay: Antioxidant activity assessed as inhibition of DPPH free radicals at 0.01 mM after 30 mins by UV-visible spectrophotometer analysis relative to control; assay type: functional
[8] = system: Radical scavenging activity; assay: Antioxidant activity assessed as inhibition of DPPH free radicals at 0.1 mM after 30 mins by UV-visible spectrophotometer analysis relative to control; assay type: functional
[9] = Antagonist activity at VGCC in Sprague-Dawley rat brain synaptoneurosomes assessed as inhibition of Kcl-induced calcium flux at 100 uM after 5 mins using FURA-2AM by fluorescent spectrometer analysis relative to control; assay type: functional
[10] = system: Radical scavenging activity; assay: Antioxidant activity assessed as inhibition of DPPH free radicals after 30 mins by UV-visible spectrophotometer analysis relative to control; assay type: functional
[11] = Antioxidant activity assessed as inhibition of ABTS free radicals after 30 mins by UV-visible spectrophotometer analysis relative to control; assay type: functional

| Compound | inhibition [1] [%] | inhibition [2] [%] | inhibition [3] [%] | inhibition (INH) [4] [%] | IC50 [5] | inhibition [6] [%] | inhibition [7] [%] | inhibition [8] [%] | inhibition (INH) [9] [%] | inhibition [10] | inhibition [11] | IC50 ([5]; read-out: IC50) [nM] |
| --- | --- | --- | --- | --- | --- | --- | --- | --- | --- | --- | --- | --- |
| O=[N+]([O-])c1ccc(NC23CC4CC(CC(C4)C2)C3)c([N+](=O)[O-])c1 | 15.7 | 9.73 | 37 | 80.75 | Not Active | 8.21 | 32.1 | 36.8 | 89.14 | Dose-dependent effect | Dose-dependent effect |  |
| Cc1c(C)c2c(c(C)c1O)CCC(C)(C(=O)O)O2 (stereo not given) | 88.5 | 62.8 | 95.1 |  |  | 47.6 | 45.8 | 74.6 |  | Dose-dependent effect | Dose-dependent effect |  |
| N=C(N)NN [PIMAGEDINE] |  |  |  |  |  |  |  |  |  |  |  | 19400 |
| CN(C)c1cccc2c(S(=O)(=O)NC34CC5CC(CC(C5)C3)C4)cccc12 | 41.6 | 22.4 | 40.9 | 78.05 |  | 8.11 | 38 | 38.1 | 44.77 | Dose-dependent effect | Dose-dependent effect | 410 |
| c1ccc(CNC23OC4C5C6CC(C7C6C4C72)C53)cc1 (stereo not given) | 8.88 | 7.33 | 9.98 | 86.63 | Not Active | 2.44 | 0.2 | 5.99 | 70.12 | Dose-dependent effect | Dose-dependent effect |  |
| O=C(NC12CC3CC(CC(C3)C1)C2)c1cc2ccccc2oc1=O | 93.3 | 91.8 | 91.7 | 79.71 |  | 87.5 | 31.8 | 69.8 | 75.35 | Dose-dependent effect | Dose-dependent effect | 850 |
| NC12CC3CC(CC(C3)C1)C2 [AMANTADINE] | 1.62 | 1.34 | 2.32 | 83.1 | Not Active | 0.49 | 0.55 | 2.11 | 86.13 | Dose-dependent effect | Dose-dependent effect |  |
| COCCOC(=O)C1=C(C)NC(C)=C(C(=O)OC(C)C)C1c1cccc([N+](=O)[O-])c1 (stereo not given) [NIMODIPINE] |  |  |  |  |  |  |  |  | 12.29 |  |  |  |
| O=C(NC12CC3CC(CC(C3)C1)C2)c1n[nH]c2ccccc12 | 39.9 | 21.7 | 32.9 | 83 |  | 12.4 | 28.7 | 30.1 | 93.43 | Dose-dependent effect | Dose-dependent effect |  |
| N#Cc1c2ccccc2cn1C12CC3CC(CC(C3)C1)C2 | 13.5 | 13.2 | 32.7 | 84.01 |  | 9.98 | 27.4 | 27.8 | 54.24 | Dose-dependent effect | Dose-dependent effect |  |
| CNc1ccccc1C(=O)NC12CC3CC(CC(C3)C1)C2 | 50.5 | 24.3 | 44 | 96.66 |  | 10.7 | 42.7 | 42.8 | 93.2 | Dose-dependent effect | Dose-dependent effect |  |
